Here are results for 15 compounds from article PMC6175941, “Hydrophobic alkyl chains substituted to the 8-position of cyclic nucleotides enhance activation of CNG and HCN channels by an intricate enthalpy - entropy compensation” (Scientific Reports, 2018).

One may read the EC50 as the midpoint of the concentration-response curve. Low values mean higher potency in that assay, high ones lower potency in that assay.

Structures are written as SMILES.

Assay [1] deals with T1, heterotetrameric CNGA2:CNGA4:CNGB1b channels (Rattus norvegicus, UniProt A0A8I5ZN27+Q00195+Q64359).
T1 construct: expressed in transfected cells; host or cells: Xenopus laevis oocytes co-injected with cRNAs (2:1:1); inside-out patches
Kind of assay: Concentration-activation relationship of heterotetrameric CNGA2:CNGA4:CNGB1b channels, inside-out patches of Xenopus oocytes. It is filed as cell-based. Here is the method:
(§1) For each cNMP derivative a complete concentration-activation relationship was recorded, and the data points were fitted with the Hill equation (equation 1) yielding the concentration of half maximum activation (EC50) and the Hill coefficient H (Fig. 1b,c).
(§2) The subunits CNGA2 (accession No. AF126808), CNGA4 (accession No. U12623) and CNGB1b (accession No. AF068572) of rat olfactory channels as well as mouse HCN2 channels (NM008226) were subcloned in front of the T7 promoter of pGEMHEnew. The respective cRNAs were produced by using the mMESSAGE mMACHINE T7 Kit (Ambion, Austin, TX).
(§3) Oocytes at stages IV and V were injected with 50–130 ng of cRNA encoding either CNGA2, CNGA2:CNGA4:CNGB1b (2:1:1 ratio) or HCN2 channels either manually of or by means of an injection robot (RoboInject®). The injected oocytes were incubated at 18 °C for up to 6 days in Barth’s solution containing (in mM) 84 NaCl, 1 KCl, 2.4 NaHCO3, 0.82 MgSO4, 0.41 CaCl2, 0.33 Ca(NO3)2, 7.5 TRIS, cefuroxime (4.0 µg × ml^−1), and penicillin/streptomycin (100 µg × ml^−1), pH 7.4.
(§4) Macroscopic currents were recorded from inside-out patches of the oocytes by using standard patch-clamp techniques. The patch pipettes were pulled from quartz tubing (P-2000, Sutter Instrument, Novato, USA) with an outer and inner diameter of 1.0 and 0.7 mm (VITROCOM, New Jersey, USA). The corresponding pipette resistance was 0.9–2.3 MΩ. The bath and pipette solution contained (in mM): 150 KCl, 1 EGTA, 5 Hepes (pH 7.4 with KOH) for CNG measurements. For HCN measurements the bath solution contained 100 mM KCl, 10 mM EGTA, 10 mM HEPES (pH 7.2) and 120 mM KCl, 10 mM HEPES, and 1.0 mM CaCl2 (pH 7.2) in the pipette. Recording was carried out at room temperature using an Axopatch 200B amplifier (Axon Instruments, Foster City, CA). Electrophysiology was controlled by the Patchmaster-software (HEKA Elektronik Dr. Schulze GmbH, Lambrecht, Germany). The sampling rate was 5 kHz and the filter implemented in the amplifier (4-pole Bessel) was set to 2 kHz. Measurements in HCN2 channels were generally started 3.5 min after patch excision to minimize channel run down during the measurement[14],[27],[70]. The solutions with the ligand concentrations to be tested were applied via a multi-barrel device to the patches with a flow rate of 0.8 to 1.2 ml/min.
(§5) I is the actual current amplitude and Imax the maximum current amplitude at a saturating cNMP concentration specified for each cNMP and channel. EC50 is the cNMP concentration generating the half maximum current and H the Hill coefficient.

The target of assay [2] is T2, homotetrameric CNGA2 channels (Rattus norvegicus, UniProt Q00195).
T2 construct: expressed in transfected cells; host or cells: Xenopus laevis oocytes injected with cRNA; inside-out patches
T2 sequence (Q00195 1-664): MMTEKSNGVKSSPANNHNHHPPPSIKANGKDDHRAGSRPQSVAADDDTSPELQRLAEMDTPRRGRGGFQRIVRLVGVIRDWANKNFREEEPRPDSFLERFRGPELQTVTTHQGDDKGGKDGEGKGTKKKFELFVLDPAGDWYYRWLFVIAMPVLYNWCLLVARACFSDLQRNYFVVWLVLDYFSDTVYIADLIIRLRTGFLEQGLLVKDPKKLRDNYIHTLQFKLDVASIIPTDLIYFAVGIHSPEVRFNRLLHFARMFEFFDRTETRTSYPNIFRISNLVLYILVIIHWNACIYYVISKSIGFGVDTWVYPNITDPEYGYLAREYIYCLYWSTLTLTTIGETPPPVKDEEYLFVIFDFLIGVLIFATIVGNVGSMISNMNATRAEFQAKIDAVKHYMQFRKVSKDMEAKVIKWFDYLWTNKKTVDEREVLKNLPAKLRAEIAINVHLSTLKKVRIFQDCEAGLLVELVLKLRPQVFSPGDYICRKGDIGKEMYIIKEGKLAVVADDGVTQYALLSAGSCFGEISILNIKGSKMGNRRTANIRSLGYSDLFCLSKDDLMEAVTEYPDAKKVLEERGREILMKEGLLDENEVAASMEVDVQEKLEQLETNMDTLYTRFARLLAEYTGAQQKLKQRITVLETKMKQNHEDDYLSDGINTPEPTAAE
Kind of assay: Concentration-activation relationship of homotetrameric CNGA2 channels, inside-out patches of Xenopus oocytes. It is filed as cell-based. The protocol: as §1, §2, §3, §4, §5

Where [3] appears, read: fit of the concentration-activation relationship shown in Fig. 1c, CNGA2:CNGA4:CNGB1b channels.
The mark [4] stands for this setting: heterotetrameric CNGA2:CNGA4:CNGB1b channels, late current at +10 mV, mean.
[5] abbreviates: heterotetrameric CNGA2:CNGA4:CNGB1b channels, mean.
Where [6] appears, read: fit of the concentration-activation relationship shown in Fig. 1b, CNGA2 channels.
Where [7] appears, read: homotetrameric CNGA2 channels, late current at +10 mV, mean.
Setting [8] is: homotetrameric CNGA2 channels, mean.
Where [9] appears, read: CNGA2 channels, numeric mean values of box plots (Fig. 2a,b, Fig. 3) and text.

T1 sequence (Q64359 whole entry, one chain of several): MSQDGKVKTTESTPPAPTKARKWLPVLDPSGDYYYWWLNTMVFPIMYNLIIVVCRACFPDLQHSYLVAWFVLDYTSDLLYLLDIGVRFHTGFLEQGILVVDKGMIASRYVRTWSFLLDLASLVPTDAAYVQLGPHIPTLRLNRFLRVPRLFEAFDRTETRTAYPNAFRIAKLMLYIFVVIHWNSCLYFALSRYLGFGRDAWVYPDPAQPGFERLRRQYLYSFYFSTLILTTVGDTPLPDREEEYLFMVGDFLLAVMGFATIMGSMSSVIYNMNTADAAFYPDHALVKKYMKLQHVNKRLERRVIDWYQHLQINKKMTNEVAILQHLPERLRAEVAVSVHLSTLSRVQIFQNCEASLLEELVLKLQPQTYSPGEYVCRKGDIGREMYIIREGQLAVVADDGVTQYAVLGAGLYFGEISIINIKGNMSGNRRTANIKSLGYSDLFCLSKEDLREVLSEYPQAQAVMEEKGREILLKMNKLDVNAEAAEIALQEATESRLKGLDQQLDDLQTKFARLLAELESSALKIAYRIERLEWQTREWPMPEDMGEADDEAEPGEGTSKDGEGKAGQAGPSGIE
T1 sequence (A0A8I5ZN27 1-858 isoform A0A8I5ZN27-2, one chain of several): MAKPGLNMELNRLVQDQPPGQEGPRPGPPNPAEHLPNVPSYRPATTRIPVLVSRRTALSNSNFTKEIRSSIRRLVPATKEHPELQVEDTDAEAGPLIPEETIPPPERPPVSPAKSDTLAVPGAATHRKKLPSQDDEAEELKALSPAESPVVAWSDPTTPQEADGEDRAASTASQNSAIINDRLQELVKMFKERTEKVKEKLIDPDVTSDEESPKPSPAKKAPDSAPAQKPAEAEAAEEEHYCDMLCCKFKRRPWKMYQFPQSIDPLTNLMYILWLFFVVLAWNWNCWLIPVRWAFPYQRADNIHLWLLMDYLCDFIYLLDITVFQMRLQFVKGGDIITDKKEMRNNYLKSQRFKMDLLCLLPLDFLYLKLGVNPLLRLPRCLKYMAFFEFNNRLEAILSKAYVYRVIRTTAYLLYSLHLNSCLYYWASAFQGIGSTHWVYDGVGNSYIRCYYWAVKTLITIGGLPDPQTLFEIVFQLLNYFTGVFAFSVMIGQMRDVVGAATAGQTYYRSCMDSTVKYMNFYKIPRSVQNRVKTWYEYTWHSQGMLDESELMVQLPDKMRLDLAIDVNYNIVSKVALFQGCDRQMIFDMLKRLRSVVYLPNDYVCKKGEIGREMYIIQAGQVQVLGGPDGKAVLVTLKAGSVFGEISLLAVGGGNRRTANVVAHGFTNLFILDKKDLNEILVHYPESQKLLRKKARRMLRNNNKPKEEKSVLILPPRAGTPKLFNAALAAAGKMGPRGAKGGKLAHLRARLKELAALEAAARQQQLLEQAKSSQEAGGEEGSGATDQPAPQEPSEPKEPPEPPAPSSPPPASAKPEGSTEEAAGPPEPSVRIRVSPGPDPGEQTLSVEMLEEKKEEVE

Take `Nc1nc2c(ncn2C2OC3COP(=O)(O)OC3C2O)c(=O)[nH]1` (stereo not drawn) [1G, cGMP, reference compound]: the EC50 in assay [1] (setting [3]) was 1240 nM; in assay [1] (setting [4]), 1300 nM; in assay [2] (setting [6]), 1470 nM; in assay [2] (setting [7]), 1800 nM. Further, the H in assay [1] (setting [3]) is 2.09; in assay [2] (setting [6]) it was 2.52. Also, the “H (Hill coefficient)” value in assay [1] (setting [5]) is listed as 2.5; in assay [2] (setting [8]), 2.6.
Regarding `NCCSc1nc2c(N)ncnc2n1C1OC2COP(=O)(O)OC2C1O` (stereo not drawn) [2A, 8-AET-cAMP], the EC50 in assay [1] (setting [4]) is 13300 nM; in assay [2] (setting [9]) it was 128000 nM. The agonist type entry in assay [2] (CNGA2 channels) is given as “partial agonist”. Further, in assay [2] (setting [8]), the “H (Hill coefficient)” value was 1.8.
As for `NCCSc1nc2c(=O)[nH]c(N)nc2n1C1OC2COP(=O)(O)OC2C1O` (stereo not drawn) [2G, 8-AET-cGMP], the values for the concentration giving a half-maximal response (EC50) in assay [1] (setting [4]) and in assay [2] (setting [9]) were 1500 nM and 830 nM, respectively. The “H (Hill coefficient)” value in assay [1] (setting [5]) was 1.8; in assay [2] (setting [8]), 2.4.
As to `CC(=O)NCCSc1nc2c(=O)[nH]c(N)nc2n1C1OC2COP(=O)(O)OC2C1O` (stereo not drawn) [3G, 8-(Ac)AET-cGMP], the figures for the EC50 in assay [1] (setting [4]) and in assay [2] (setting [9]) were 280 nM and 170 nM, respectively. Besides, the results for the “H (Hill coefficient)” value in assay [1] (setting [5]) and in assay [2] (setting [8]) were 2.0 and 1.8, respectively.
In the case of `NCCCCCCSc1nc2c(N)ncnc2n1C1OC2COP(=O)(O)OC2C1O` (stereo not drawn) [4A, 8-AHT-cAMP], the values for the EC50 in assay [1] (setting [4]) and in assay [2] (setting [7]) were 1400 nM and 3100 nM, respectively. Besides, the results for the “H (Hill coefficient)” value in assay [1] (setting [5]) and in assay [2] (setting [8]) were 2.5 and 2.3, respectively.
On the same counts, the results for `NCCCCCCSc1nc2c(=O)[nH]c(N)nc2n1C1OC2COP(=O)(O)OC2C1O` (stereo not drawn) [4G, 8-AHT-cGMP] are 620 nM, 90 nM, 1.3 and 2.5.
Turning to `NCCCCCCCCCCSc1nc2c(N)ncnc2n1C1OC2COP(=O)(O)OC2C1O` (stereo not drawn) [6A, 8-ADT-cAMP], the “effect at high concentration” value in assay [1] (CNGA2:CNGA4:CNGB1b channels, at concentrations > 2 µM) is “unusual inhibition”. For the same compound, the half-maximal effective concentration (EC50) in assay [1] (setting [4]) was determined as 290 nM; in assay [2] (setting [7]) it was 630 nM. The “H (Hill coefficient)” value in assay [1] (setting [5]) is reported as 3.9; in assay [2] (setting [8]), 2.3.
As for `NCCCCCCCCCCSc1nc2c(=O)[nH]c(N)nc2n1C1OC2COP(=O)(O)OC2C1O` (stereo not drawn) [6G, 8-ADT-cGMP], the EC50 turned out to be 300 nM in assay [1] (setting [4]) and 60 nM in assay [2] (setting [7]). In addition, the “H (Hill coefficient)” value is reported as 1.6 in assay [1] (setting [5]) and 1.8 in assay [2] (setting [8]).
On the same counts, the results for `CC(=O)NCCCCCCCCCCSc1nc2c(=O)[nH]c(N)nc2n1C1OC2COP(=O)(O)OC2C1O` (stereo not drawn) [7G, 8-(Ac)ADT-cGMP] are 140 nM, 50 nM, 1.9 and 2.2.
In the case of `CC(=O)NCCOCCOCCSc1nc2c(=O)[nH]c(N)nc2n1C1OC2COP(=O)(O)OC2C1O` (stereo not drawn) [8G, 8-(Ac)APT-cGMP], the figures for the EC50 in assay [1] (setting [4]) and in assay [2] (setting [7]) were 1100 nM and 550 nM, respectively. For the same compound, the results for the “H (Hill coefficient)” value in assay [1] (setting [5]) and in assay [2] (setting [8]) were 1.6 and 2.7, respectively.
Taken in the same sequence, the figures for `CC(=O)NCCOCCOCCC(=O)NCCSc1nc2c(N)ncnc2n1C1OC2COP(=O)(O)OC2C1O` (stereo not drawn) [9A, 8-(Ac)APET-cAMP] were 7100 nM, 46200 nM, 2.2 and 2.3.
On the same counts, the results for `CC(=O)NCCOCCOCCC(=O)NCCSc1nc2c(=O)[nH]c(N)nc2n1C1OC2COP(=O)(O)OC2C1O` (stereo not drawn) [9G, 8-(Ac)APET-cGMP] are 1100 nM, 520 nM, 2.0 and 2.3.
Taken in the same sequence, the figures for `CC(=O)NCC(=O)NCCSc1nc2c(=O)[nH]c(N)nc2n1C1OC2COP(=O)(O)OC2C1O` (stereo not drawn) [10G, 8-(Ac)AGET-cGMP] were 630 nM, 340 nM, 1.9 and 2.6.
For `CC(=O)NCC(=O)NCC(=O)NCCSc1nc2c(N)ncnc2n1C1OC2COP(=O)(O)OC2C1O` (stereo not drawn) [11A, 8-(Ac)AGGET-cAMP], the EC50 amounted to 5100 nM in assay [1] (setting [4]), 29400 nM in assay [2] (setting [9]) and 29400 nM in assay [2] (setting [7]). For the same compound, the “H (Hill coefficient)” value is listed as 2.5 in assay [1] (setting [5]) and 1.9 in assay [2] (setting [8]).
In the case of `CC(=O)NCC(=O)NCC(=O)NCCSc1nc2c(=O)[nH]c(N)nc2n1C1OC2COP(=O)(O)OC2C1O` (stereo not drawn) [11G, 8-(Ac)AGGET-cGMP], the values for the EC50 in assay [1] (setting [4]) and in assay [2] (setting [7]) were 1000 nM and 330 nM, respectively. For the same compound, the “H (Hill coefficient)” value in assay [1] (setting [5]) was found to be 1.7; in assay [2] (setting [8]) it was 2.4.
